This is an account of results in US20150005390A1, “METHOD FOR TREATING INFLAMMATORY DISORDER” (National Defense Medical Center, priority 2013, published 2015).

Experiment [1] concerns NO production in RAW 264.7 macrophages. Kind of experiment: NO inhibitory assay (Griess reaction) in LPS-activated macrophages. Type of experiment: cell-based, murine. Conditions: RAW 264.7 macrophages pretreated with creosol 30 minutes, then LPS 1 μg/ml 24 hours; FIG. 1A. The protocol:
RAW 264.7 cells were seeded in 24-well plates at a density of 5×10^5 cells/ml, and then incubated with or without LPS (1 μg/ml) in the absence or presence of tested samples for 24 hours. The effects of creosol on NO production were measured indirectly by the analysis of nitrite levels, using the Griess reaction. The effects of creosol on the expression of inflammatory mediators were analyzed. In the present invention, RAW 264.7 macrophages (5×10^5/ml) were pretreated with creosol for 30 minutes, followed by stimulation with LPS (1 μg/ml) for 24 hours. NO concentration in culture medium was assayed by the Griess reaction.
In general terms: The Griess reaction detects nitrite, a stable product of nitric oxide.

Experiment [2] concerns IL-6 expression in RAW 264.7 macrophages. The experiment can be described thus: IL-6 ELISA in LPS-activated macrophages. Type of experiment: cell-based, murine. Conditions: RAW 264.7 macrophages pretreated with creosol 30 minutes, then LPS 1 μg/ml 24 hours; FIG. 1B. The protocol: (§1) Cells were seeded in 6-well plates at a density of 5×10^5 cells/ml, and then incubated with or without LPS (1 μug/ml) in the absence or presence of tested samples for 24 hours. The effects of the tested samples on TNF-α, IL-6 and IL-1β production were measured by ELISA according to the manufacturer's protocol. Briefly, 50 μl of biotinylated antibody reagent and 50 μl of supernatant were added to an anti-mouse TNF-α, IL-6 and IL-1β precoated stripwell plate, and incubated at room temperature for 2 hours. After washing the plate three times with the washing buffer, 100 μl of diluted streptavidin-HRP (horseradish peroxidase) concentrate was added to each well and the plate was incubated at room temperature for 30 minutes. The washing process was repeated; then, 100 μl of a premixed tetramethylbenzidine substrate solution was added to each well and developed at room temperature, in the dark, for 30 minutes. Following the addition of 100 μl of stop solution to each well to stop the reaction, the absorbance of the plate was measured by a microplate reader at a 450 nm wavelength. As shown in FIG. 1B and FIG. 1C, RAW 264.7 macrophages (5×10^5/ml) were pretreated with creosol for 30 minutes, followed by stimulating with LPS (1 μg/ml) for 24 hours. IL-6 and TNF-α concentration in culture medium was assayed by ELISA.

For experiment [3], the system named is TNF-α expression in RAW 264.7 macrophages. The experiment can be described thus: TNF-α ELISA in LPS-activated macrophages. Conditions: RAW 264.7 macrophages pretreated with creosol 30 minutes, then LPS 1 μg/ml 24 hours; FIG. 1C. Type of experiment: cell-based, murine. The protocol:
as §1
On the technique in general: An ELISA detects its analyte on a solid surface through an enzyme-linked reagent.

Experiment [4] relates to IL-1β secretion in J774A.1 cells. The experiment can be described thus: IL-1β secretion ELISA in ATP stimulated LPS-primed macrophages (NLRP3 inflammasome activation). Type of experiment: cell-based, mouse. The protocol:
Cells were seeded in 6-well plates at a density of 5×10^5 cells/ml, and then incubated with or without LPS (1 μug/ml) in the absence or presence of tested samples for 24 hours. The effects of the tested samples on TNF-α, IL-6 and IL-1β production were measured by ELISA according to the manufacturer's protocol. Briefly, 50 μl of biotinylated antibody reagent and 50 μl of supernatant were added to an anti-mouse TNF-α, IL-6 and IL-1β precoated stripwell plate, and incubated at room temperature for 2 hours. […] Following the addition of 100 μl of stop solution to each well to stop the reaction, the absorbance of the plate was measured by a microplate reader at a 450 nm wavelength.
(§2) J774A.1 cells (1×10^6/ml) were primed with LPS for 5.5 hours, followed by treatment with creosol for 30 minutes, and then stimulated with ATP (5 mM) for an additional 30 minutes. […] Data is expressed as the mean±SE from three separate experiments (wherein *p<0.05). In FIG. 2B, the expression of caspase-1 (p45) and cleaved caspase-1 (p10) were analyzed by Western blot. […] Data is expressed as the mean±SE from three separate experiments (wherein *p<0.05). The expressions of caspase-1 (p45) and cleaved caspase-1 (p10) were analyzed by Western blot, and the result of one of the three separate experiments is shown in FIG. 2D. […] The expressions of NLRP3 inflammasomes and IL-1β precursor were analyzed by Western blot. […]

The test system of experiment [5] is caspase-1 activation in J774A.1 cells. Kind of experiment: Caspase-1 activation, Western blot of p10 subunit in ATP stimulated LPS-primed macrophages. Type of experiment: cell-based, mouse. Conditions: then ATP 30 minutes. The protocol:
(§3) Whole cell lysates were separated by SDS-PAGE and electrotransferred to a PVDF (polyvinylidene fluoride) membrane. The membranes were incubated in a blocking solution—5% nonfat milk in phosphate buffered saline with 0.1% Tween 20—at room temperature for 1 hour. Each membrane was incubated with a specific primary antibody, at room temperature, for 2 hours. After washing the membrane three times in PBS with 0.1% Tween 20, it was incubated with an HRP-conjugated secondary antibody directed against the primary antibody. The membrane was developed by an enhanced chemiluminescence Western blot detection system.
as §2
For orientation: In western blotting, separated proteins are transferred to a membrane and probed.

Experiment [6] relates to NLRP3 expression in J774A.1 cells. The experiment can be described thus: NLRP3 expression, Western blot in LPS-activated macrophages. Type of experiment: cell-based, mouse. To be noted: J774A.1 cells incubated with creosol 30 minutes, then LPS 6 hours; FIG. 2E. As to the method:
as §3, §2

Experiment [7] relates to IL-1β precursor expression in J774A.1 cells. Kind of experiment: IL-1β precursor expression, Western blot in LPS-activated macrophages. Type of experiment: cell-based, mouse. To be noted: J774A.1 cells incubated with creosol 30 minutes, then LPS 6 hours; FIG. 2E. As to the method:
as §3, §2

For experiment [8], the system named is cultured rat hippocampal neurons. To be noted: cultured rat hippocampal neurons exposed to N-methyl-D-aspartate or H2O2; cited from earlier work.
Experiment [9] relates to ovariectomy-induced bone loss. Conditions: through inhibiting osteoclastogenesis; cited from earlier work.

For `COc1cc(C)ccc1O` [creosol, 2-methoxy-4-methylphenol], in experiment [1], the “expression of NO” value is “inhibited in creosol-pretreated cells in a dose-dependent manner”. Moreover, the IL-6 expression entry in experiment [2] is reported as “able to inhibit IL-6 expression in a dose-dependent manner”. Also, in experiment [3], the TNF-α expression result is given as “not able to inhibit TNF-α expression”. Further, the IL-1β secretion entry is “inhibited IL-1β secretion in a dose-dependent fashion” in [4] (J774A.1 cells incubated with creosol 30 minutes before LPS-priming, washed out, then ATP 30 minutes, FIG. 2C) and “inhibited IL-1β secretion slightly” in experiment [4] (LPS-primed J774A.1 cells incubated with creosol 30 minutes, then ATP 5 mM 30 minutes, FIG. 2A). Further, the caspase-1 activation result is given as “inhibited by creosol in a dose-dependent fashion” in experiment [5] (J774A.1 cells incubated with creosol 30 minutes before LPS-priming, washed out, FIG. 2D) and “inhibited caspase-1 activation slightly” in experiment [5] (LPS-primed J774A.1 cells incubated with creosol 30 minutes, FIG. 2B). In addition, in experiment [6], the NLRP3 expression entry is “inhibited NLRP3 expression slightly”. The IL-1β precursor expression entry in experiment [7] is recorded as “significantly inhibited the IL-1[…] precursor expression”. The “prevention of cell death of neurons” value in [8] was “able to prevent the cell death”. Also, the “prevention of ovariectomy-induced bone loss” value in experiment [9] is given as “able to prevent ovariectomy-induced bone loss”.
